This passage reports IC50 results from patent US20080021026A1, “BENZOTHIOPHENE INHIBITORS OF RHO KINASE” (priority 2006, published 2008).

The target of experiment [1] is T1, recombinant N-terminal GST-tagged human Rho kinase 1 (ROCK1, amino acids 1-535) (Homo sapiens, UniProt Q13464).
T1 construct: ROCK1, amino acids 1-535; purchased Invitrogen Inc. PV-3691
In words: In vitro Rho kinase assay (luciferase-based ATP consumption), ROCK1. It is filed as biochemical. Summed up: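 ATP depletion measured by firefly luciferase luminescence after 2 h at 30 °C, with inhibition raising signal and activity expressed relative to H-1152P. Reaction: 0.82 μg/ml recombinant GST-tagged ROCK1 (aa 1-535), S6 peptide 100 μg/ml, […], pH 7.5 Tris buffer.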

The target in experiment [2] is T2, recombinant N-terminal GST-tagged human Rho kinase 2 (ROCK2, amino acids 1-552) (Homo sapiens, UniProt O75116).
T2 construct: ROCK2, amino acids 1-552; purchased Invitrogen Inc. PV3759
The experiment can be described thus: In vitro Rho kinase assay (luciferase-based ATP consumption), ROCK2. The format is biochemical. Summed up: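 Luciferase-based luminescence of leftover ATP after 2 h at 30 °C, where inhibition raises signal, reports activity of GST-tagged ROCK2 (aa 1-552) at 0.82 μg/ml. Conditions: S6 peptide 100 μg/ml, […], pH 7.5 Tris buffer. Results given as percent of H-1152P control activity.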

Where [3] appears, read: recombinant GST-tagged human ROCK1, luciferase-based ATP consumption, read-out: ROCK1 IC50.
The mark [4] stands for this setting: recombinant GST-tagged human ROCK2, luciferase-based ATP consumption, read-out: ROCK2 IC50.
Setting [5] is: ROCK1 IC50, recombinant GST-tagged human ROCK1, luciferase-based ATP consumption.
Setting [6] is: ROCK2 IC50, recombinant GST-tagged human ROCK2, luciferase-based ATP consumption.

Structures are written as SMILES. Where two headings read alike, the source gives them in different places.

T1 sequence (Q13464 1-535): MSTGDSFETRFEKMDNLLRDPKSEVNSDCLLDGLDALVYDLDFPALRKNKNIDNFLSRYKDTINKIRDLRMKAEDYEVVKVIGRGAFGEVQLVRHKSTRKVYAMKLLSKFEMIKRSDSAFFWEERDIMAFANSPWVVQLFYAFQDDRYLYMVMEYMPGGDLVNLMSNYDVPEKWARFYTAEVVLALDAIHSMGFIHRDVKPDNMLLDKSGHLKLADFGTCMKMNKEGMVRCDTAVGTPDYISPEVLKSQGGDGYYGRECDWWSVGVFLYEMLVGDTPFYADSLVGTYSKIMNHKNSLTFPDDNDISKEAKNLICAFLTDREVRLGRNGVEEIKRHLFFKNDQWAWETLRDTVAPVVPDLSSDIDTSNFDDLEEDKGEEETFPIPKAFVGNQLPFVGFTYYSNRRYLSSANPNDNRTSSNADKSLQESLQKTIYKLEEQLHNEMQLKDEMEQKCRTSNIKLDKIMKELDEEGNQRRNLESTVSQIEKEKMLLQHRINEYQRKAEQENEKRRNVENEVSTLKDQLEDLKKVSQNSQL
T2 sequence (O75116 1-552): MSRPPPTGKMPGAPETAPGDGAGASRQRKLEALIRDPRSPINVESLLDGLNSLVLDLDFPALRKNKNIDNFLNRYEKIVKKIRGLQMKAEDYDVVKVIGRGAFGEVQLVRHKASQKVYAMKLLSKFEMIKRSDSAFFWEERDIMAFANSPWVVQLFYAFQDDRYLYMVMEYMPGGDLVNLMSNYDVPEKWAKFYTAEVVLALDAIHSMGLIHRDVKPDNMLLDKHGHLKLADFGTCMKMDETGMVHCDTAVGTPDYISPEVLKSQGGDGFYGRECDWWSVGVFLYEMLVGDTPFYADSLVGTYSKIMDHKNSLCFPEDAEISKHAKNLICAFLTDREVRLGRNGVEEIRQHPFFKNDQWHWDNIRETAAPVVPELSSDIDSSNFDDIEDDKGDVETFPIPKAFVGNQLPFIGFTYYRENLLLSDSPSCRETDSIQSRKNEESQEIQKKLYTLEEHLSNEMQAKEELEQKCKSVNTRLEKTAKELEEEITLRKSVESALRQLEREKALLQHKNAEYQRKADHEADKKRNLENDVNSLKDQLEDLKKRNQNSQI

The IC50 is the point on the concentration scale where inhibition reaches its midpoint. On to `Cc1c(-c2ccnc(N)n2)sc2ccc(Nc3cncc(O)c3)cc12` [Example 68, 5-(2-(2-Aminopyrimidin-4-yl)-3-methylbenzo[b]thiophen-5-ylamino)pyridin-3-ol], for which the IC50 in experiment [1] (setting [3]) and in experiment [2] (setting [4]) was less than 5 µM each time.
On to `Cc1cccc(C(=O)NCc2ccc3sc(-c4ccnc(N)n4)c(C)c3c2)c1[N+](=O)[O-]` [Example 216, Cc1cccc(C(═O)NCc2ccc3sc(c(C)c3c2)-c4ccnc(N)n4)c1[N+]([O−])═O], for which the results for the IC50 in experiment [1] (setting [3]) and in experiment [2] (setting [4]) were greater than 5 µM and less than 5 µM, respectively.
As to `COc1cc(C(=O)NCc2ccc3sc(-c4ccnc(N)n4)c(C)c3c2)cc(OC)c1OC` [Example 279, COc1cc(cc(OC)c1OC)C(═O)NCc2ccc3sc(c(C)c3c2)-c4ccnc(N)n4], the IC50 in experiment [1] (setting [3]) is greater than 5 µM; in experiment [2] (setting [4]), less than 5 µM.
Take `Cc1c(-c2ccnc(N)n2)sc2ccc(CNC(=O)c3c4ccccc4cc4ccccc34)cc12` [Example 297, Cc1c(sc2ccc(CNC(═O)c3c4ccccc4cc5ccccc35)cc12)-c6ccnc(N)n6]: the IC50 in experiment [1] (setting [3]) and in experiment [2] (setting [4]) was less than 5 µM throughout.
On to `CCCc1ccc(C(=O)NCc2ccc3sc(-c4ccnc(N)n4)c(C)c3c2)cc1` [Example 171, CCCc1ccc(cc1)C(═O)NCc2ccc3sc(c(C)c3c2)-c4ccnc(N)n4], for which the IC50 in experiment [1] (setting [3]) and in experiment [2] (setting [4]) was greater than 5 µM each time.
As for `Cc1c(-c2ccnc(N)n2)sc2ccc(CNC(=O)C3CCc4ccccc43)cc12` (stereo not shown) [Example 159, Cc1c(sc2ccc(CNC(═O)C3CCc4ccccc34)cc12)-c5ccnc(N)n5], the IC50 in experiment [1] (setting [3]) and in experiment [2] (setting [4]) was less than 5 µM in each case.
As for `Cc1c(-c2ccnc(N)n2)sc2ccc(CNC(=O)c3cc(F)c(F)cc3[N+](=O)[O-])cc12` [Example 272, Cc1c(sc2ccc(CNC(═O)c3cc(F)c(F)cc3[N+]([O−])═O)cc12)-c4ccnc(N)n4], the concentration for half-maximal inhibition (IC50) in experiment [1] (setting [3]) is greater than 5 µM; in experiment [2] (setting [4]) it was less than 5 µM.
The corresponding values for `Cc1c(-c2ccnc(N)n2)sc2ccc(CNC(=O)c3ccc4cc(O)ccc4c3)cc12` [Example 236, Cc1c(sc2ccc(CNC(═O)c3ccc4cc(O)ccc4c3)cc12)-c5ccnc(N)n5] are less than 5 µM and less than 5 µM.
The corresponding values for `Cc1cc(C(=O)NCc2ccc3sc(-c4ccnc(N)n4)c(C)c3c2)ccc1Br` [Example 286, Cc1cc(ccc1Br)C(═O)NCc2ccc3sc(c(C)c3c2)-c4ccnc(N)n4] are greater than 5 µM and greater than 5 µM.
The matching figures for `Cc1c(-c2cc(N)ncn2)sc2ccc(Cl)cc12` [Example 8, 6-(5-Chloro-3-methylbenzo[b]thiophen-2-yl)pyrimidin-4-amine]: greater than 5 µM and greater than 5 µM.
As for `Cc1c(-c2ccnc(N)n2)sc2ccc(CNC(=O)c3ccc(Cl)cc3Cl)cc12` [Example 246, Cc1c(sc2ccc(CNC(═O)c3ccc(Cl)cc3Cl)cc12)-c4ccnc(N)n4], the IC50 in experiment [1] (setting [5]) and in experiment [2] (setting [6]) was less than 5 µM in each case.
For `Cc1c(-c2ccnc(N)n2)sc2ccc(CNC(=O)C(CC(C)C)NC(=O)OC(C)(C)C)cc12` (stereo not shown) [Example 323, CC(C)C[C](NC(═O)OC(C)(C)C)C(═O)NCc1ccc2sc(c(C)c2c1)-c3ccnc(N)n3], the IC50 was less than 5 µM in experiment [1] (setting [3]) and greater than 5 µM in experiment [2] (setting [4]).
The corresponding values for `CCc1ccc(C(=O)NCc2ccc3sc(-c4ccnc(N)n4)c(C)c3c2)cc1` [Example 137, CCc1ccc(cc1)C(═O)NCc2ccc3sc(c(C)c3c2)-c4ccnc(N)n4] are greater than 5 µM and greater than 5 µM.
The corresponding values for `CC(=O)c1ccccc1C(=O)NCc1ccc2sc(-c3ccnc(N)n3)c(C)c2c1` [Example 165, CC(═O)c1ccccc1C(═O)NCc2ccc3sc(c(C)c3c2)-c4ccnc(N)n4] are greater than 5 µM and less than 5 µM.
The matching figures for `Cc1c(-c2ccncc2)sc2ccc(Cl)cc12` [Example 4, 4-(5-Chloro-3-methylbenzo[b]thiophen-2-yl)pyridine]: greater than 5 µM and greater than 5 µM.
For `Cc1c(-c2ccnc(N)n2)sc2ccc(CNC(=O)c3ccc(F)cc3Cl)cc12` [Example 194, Cc1c(sc2ccc(CNC(═O)c3ccc(F)cc3Cl)cc12)-c4ccnc(N)n4], the IC50 is greater than 5 µM in experiment [1] (setting [5]) and less than 5 µM in experiment [2] (setting [6]).
Regarding `Cc1c(-c2ccnc(N)n2)sc2ccc(CNC(=O)c3ccc(F)c([N+](=O)[O-])c3)cc12` [Example 231, Cc1c(sc2ccc(CNC(═O)c3ccc(F)c(c3)[N+]([O−])═O)cc12)-c4ccnc(N)n4], the IC50 in experiment [1] (setting [3]) and in experiment [2] (setting [4]) was less than 5 µM each time.
On to `Cc1c(-c2ccnc(N)n2)sc2ccc(CNC(=O)Cc3ccc(C(F)(F)F)cc3)cc12` [Example 273, Cc1c(sc2ccc(CNC(═O)Cc3ccc(cc3)C(F)(F)F)cc12)-c4ccnc(N)n4], for which the IC50 in experiment [1] (setting [3]) and in experiment [2] (setting [4]) was less than 5 µM throughout.
Regarding `Cc1c(-c2ccnc(N)n2)sc2ccc(CNC(=O)C(C)(C)C)cc12` [Example 100, Cc1c(sc2ccc(CNC(═O)C(C)(C)C)cc12)-c3ccnc(N)n3], the IC50 in experiment [1] (setting [3]) and in experiment [2] (setting [4]) was less than 5 µM in each case.
For `Cc1c(-c2ccnc(N)n2)sc2ccc(CNC(=O)c3ccc4c(c3)OCO4)cc12` [Example 172, Cc1c(sc2ccc(CNC(═O)c3ccc4OCOc4c3)cc12)-c5ccnc(N)n5], the IC50 in experiment [1] (setting [3]) and in experiment [2] (setting [4]) was less than 5 µM throughout.
For the compound `Cc1c(-c2ccnc(N)n2)sc2ccc(CNC(=O)c3ccc4ccccc4c3O)cc12` [Example 239, Cc1c(sc2ccc(CNC(═O)c3ccc4ccccc4c3O)cc12)-c5ccnc(N)n5], the IC50 in experiment [1] (setting [3]) was greater than 5 µM; in experiment [2] (setting [4]), less than 5 µM.
With `Cc1c(-c2ccnc(N)n2)sc2ccc(Nc3ccccc3)cc12` [Example 69, 4-(3-Methyl-5-(phenylamino)benzo[b]thiophen-2-yl)pyrimidin-2-amine], the IC50 in experiment [1] (setting [3]) and in experiment [2] (setting [4]) was less than 5 µM each time.
Consider `Cc1c(-c2ccnc(N)n2)sc2ccc(CNC(=O)CCc3ccccc3Br)cc12` [Example 303, Cc1c(sc2ccc(CNC(═O)CCc3ccccc3Br)cc12)-c4ccnc(N)n4], for which the IC50 in experiment [1] (setting [3]) and in experiment [2] (setting [4]) was greater than 5 µM each time.
Turning to `Nc1nccc(-c2sc3ccccc3c2Br)n1` [Example 15, 4-(3-Bromobenzo[b]thiophen-2-yl)pyrimidin-2-amine], the IC50 in experiment [1] (setting [3]) and in experiment [2] (setting [4]) was less than 5 µM throughout.
Take `Cc1c(-c2ccnc(N)n2)sc2ccc(Nc3ccc4c(c3)OCO4)cc12` [Example 70, 4-(5-(Benzo[d][1,3]dioxol-5-ylamino)-3-methylbenzo[b]thiophen-2-yl)pyrimidin-2-amine]: the IC50 in experiment [1] (setting [3]) and in experiment [2] (setting [4]) was less than 5 µM throughout.
Consider `Cc1c(-c2ccnc(N)n2)sc2ccc(CNC(=O)c3ccccc3C(=O)c3ccc(O)cc3)cc12` [Example 316, Cc1c(sc2ccc(CNC(═O)c3ccccc3C(═O)c4ccc(O)cc4)cc12)-c5ccnc(N)n5], for which the IC50 in experiment [1] (setting [3]) and in experiment [2] (setting [4]) was less than 5 µM in each case.
For the compound `Cc1c(-c2ccnc(N)n2)sc2ccc(CNC(=O)c3cc4cc(Cl)ccc4o3)cc12` [Example 258, Cc1c(sc2ccc(CNC(═O)c3cc4cc(Cl)ccc4o3)cc12)-c5ccnc(N)n5], the IC50 in experiment [1] (setting [3]) and in experiment [2] (setting [4]) was less than 5 µM each time.
As for `Cc1ccc(C(=O)NCc2ccc3sc(-c4ccnc(N)n4)c(C)c3c2)c(C)c1` [Example 131, Cc1ccc(c(C)c1)C(═O)NCc2ccc3sc(c(C)c3c2)-c4ccnc(N)n4], the IC50 in experiment [1] (setting [3]) and in experiment [2] (setting [4]) was less than 5 µM each time.
Consider `Cc1c(-c2cc(N)nc(N)n2)sc2ccc(Cl)cc12` [Example 9, 6-(5-Chloro-3-methylbenzo[b]thiophen-2-yl)pyrimidine-2,4-diamine], for which the IC50 in experiment [1] (setting [3]) and in experiment [2] (setting [4]) was greater than 5 µM each time.
Turning to `Cc1c(-c2ccnc(N)n2)sc2ccc(CNC(=O)C(NC(=O)OC(C)(C)C)C(C)C)cc12` (stereo not shown) [Example 292, CC(C)[C](NC(═O)OC(C)(C)C)C(═O)NCc1ccc2sc(c(C)c2c1)-c3ccnc(N)n3], the IC50 in experiment [1] (setting [3]) is less than 5 µM; in experiment [2] (setting [4]), greater than 5 µM.
The matching figures for `Cc1c(-c2ccnc(N)n2)sc2ccc(Nc3ccnc(O)n3)cc12` [Example 75, 4-(2-(2-Aminopyrimidin-4-yl)-3-methylbenzo[b]thiophen-5-ylamino)pyrimidin-2-ol]: less than 5 µM and less than 5 µM.
As for `COc1cc(C(=O)NCc2ccc3sc(-c4ccnc(N)n4)c(C)c3c2)cc(OC)c1O` [Example 260, COc1cc(cc(OC)c1O)C(═O)NCc2ccc3sc(c(C)c3c2)-c4ccnc(N)n4], the IC50 in experiment [1] (setting [3]) is greater than 5 µM; in experiment [2] (setting [4]) it was less than 5 µM.
The matching figures for `Cc1c(-c2ccnc(N)n2)sc2ccc(CNC(=O)Cc3ccc4c(c3)OCO4)cc12` [Example 212, Cc1c(sc2ccc(CNC(═O)Cc3ccc4OCOc4c3)cc12)-c5ccnc(N)n5]: less than 5 µM and less than 5 µM.
The matching figures for `COc1ccccc1CC(=O)NCc1ccc2sc(-c3ccnc(N)n3)c(C)c2c1` [Example 177, COc1ccccc1CC(═O)NCc2ccc3sc(c(C)c3c2)-c4ccnc(N)n4]: greater than 5 µM and less than 5 µM.
Regarding `Cc1c(-c2ccnc(N)n2)sc2ccc(CNC(=O)C(C)O)cc12` (stereo not shown) [Example 98, C[C](O)C(═O)NCc1ccc2sc(c(C)c2c1)-c3ccnc(N)n3], the IC50 is greater than 5 µM in experiment [1] (setting [3]) and less than 5 µM in experiment [2] (setting [4]).
